Data published in ChEMBL document CHEMBL1138430, “Novel tetrahydroisoquinolines are histamine H3 antagonists and serotonin reuptake inhibitors” (Bioorg Med Chem Lett, 2007).
Activity calls are given as the source filed them.

Tests used:
[1] = biological target: T1, 5-hydroxytryptamine receptor 1A (Homo sapiens) (UniProt P08908); test: Binding affinity at 5HT1A receptor at 1 uM
T1 sequence (whole entry): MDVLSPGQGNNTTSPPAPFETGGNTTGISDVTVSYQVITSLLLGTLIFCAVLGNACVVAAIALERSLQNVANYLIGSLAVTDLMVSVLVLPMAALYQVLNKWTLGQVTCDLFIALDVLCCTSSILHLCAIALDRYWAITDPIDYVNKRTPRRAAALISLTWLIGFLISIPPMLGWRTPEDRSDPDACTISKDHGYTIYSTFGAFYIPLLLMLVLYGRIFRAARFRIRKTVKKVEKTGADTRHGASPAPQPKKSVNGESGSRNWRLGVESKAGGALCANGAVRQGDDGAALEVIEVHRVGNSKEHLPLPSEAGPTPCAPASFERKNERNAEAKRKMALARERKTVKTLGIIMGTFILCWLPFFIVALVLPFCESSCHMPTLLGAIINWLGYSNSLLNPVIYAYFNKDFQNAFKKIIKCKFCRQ

[2] = biological target: Neurotensin receptor type 1 (Homo sapiens) (UniProt P30989); test: Binding affinity at NT1 receptor at 1 uM
Neurotensin receptor type 1 (Homo sapiens), sequence (P30989 whole entry): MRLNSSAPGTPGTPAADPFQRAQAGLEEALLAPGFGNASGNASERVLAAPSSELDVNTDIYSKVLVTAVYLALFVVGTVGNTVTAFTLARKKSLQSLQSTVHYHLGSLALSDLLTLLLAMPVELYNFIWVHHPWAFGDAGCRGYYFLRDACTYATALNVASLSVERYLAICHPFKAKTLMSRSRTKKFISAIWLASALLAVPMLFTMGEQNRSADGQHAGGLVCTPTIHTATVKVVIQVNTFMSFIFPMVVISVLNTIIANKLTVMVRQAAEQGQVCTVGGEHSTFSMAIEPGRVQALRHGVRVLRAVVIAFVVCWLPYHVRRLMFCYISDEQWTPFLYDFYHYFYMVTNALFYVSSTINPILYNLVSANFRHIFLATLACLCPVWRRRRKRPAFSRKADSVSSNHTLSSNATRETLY

[3] = biological target: T2, Adenosine receptor A3 (Homo sapiens) (UniProt P0DMS8); test: Binding affinity at adenosine A3 receptor at 1 uM
T2 sequence (whole entry): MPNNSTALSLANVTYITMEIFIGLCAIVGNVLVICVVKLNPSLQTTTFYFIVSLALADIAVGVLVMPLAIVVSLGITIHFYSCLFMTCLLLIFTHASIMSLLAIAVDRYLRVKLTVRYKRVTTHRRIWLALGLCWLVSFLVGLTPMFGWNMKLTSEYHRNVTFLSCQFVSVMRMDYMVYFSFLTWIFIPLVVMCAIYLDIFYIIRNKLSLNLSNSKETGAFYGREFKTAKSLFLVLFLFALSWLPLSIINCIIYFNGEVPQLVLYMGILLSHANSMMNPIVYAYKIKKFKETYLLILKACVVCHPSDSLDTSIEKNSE

[4] = biological target: T3, Muscarinic acetylcholine receptor M1 (Homo sapiens) (UniProt P11229); test: Binding affinity at muscarinic M1 receptor at 1 uM
T3 sequence (whole entry): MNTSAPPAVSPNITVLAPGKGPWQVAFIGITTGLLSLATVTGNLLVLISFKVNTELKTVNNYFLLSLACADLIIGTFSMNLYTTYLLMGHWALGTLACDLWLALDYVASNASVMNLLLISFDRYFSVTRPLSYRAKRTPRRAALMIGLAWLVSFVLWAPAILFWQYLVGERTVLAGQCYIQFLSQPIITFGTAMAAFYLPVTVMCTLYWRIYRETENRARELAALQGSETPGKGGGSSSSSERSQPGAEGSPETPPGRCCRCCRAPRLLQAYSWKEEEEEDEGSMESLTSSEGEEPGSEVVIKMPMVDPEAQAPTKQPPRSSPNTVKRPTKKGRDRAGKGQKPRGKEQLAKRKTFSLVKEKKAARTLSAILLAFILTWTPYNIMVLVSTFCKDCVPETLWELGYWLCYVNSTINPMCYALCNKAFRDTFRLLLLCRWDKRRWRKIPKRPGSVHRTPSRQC

[5] = biological target: 5-hydroxytryptamine receptor 5A (Homo sapiens) (UniProt P47898); test: Binding affinity at 5HT5A receptor at 1 uM
5-hydroxytryptamine receptor 5A (Homo sapiens), sequence (P47898 whole entry): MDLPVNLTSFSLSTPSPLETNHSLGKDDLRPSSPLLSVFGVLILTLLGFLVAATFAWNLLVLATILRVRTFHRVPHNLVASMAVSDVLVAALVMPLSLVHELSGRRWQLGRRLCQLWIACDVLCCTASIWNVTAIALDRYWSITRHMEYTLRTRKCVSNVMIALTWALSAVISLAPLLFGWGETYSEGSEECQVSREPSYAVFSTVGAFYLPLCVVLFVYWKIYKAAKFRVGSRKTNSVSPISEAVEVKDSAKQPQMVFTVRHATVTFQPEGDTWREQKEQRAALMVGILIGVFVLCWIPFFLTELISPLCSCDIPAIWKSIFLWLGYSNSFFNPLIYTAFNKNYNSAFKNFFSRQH

[6] = biological target: D(1A) dopamine receptor (Homo sapiens) (UniProt P21728); test: Binding affinity at dopamine D1 receptor at 1 uM
D(1A) dopamine receptor (Homo sapiens), sequence (P21728 whole entry): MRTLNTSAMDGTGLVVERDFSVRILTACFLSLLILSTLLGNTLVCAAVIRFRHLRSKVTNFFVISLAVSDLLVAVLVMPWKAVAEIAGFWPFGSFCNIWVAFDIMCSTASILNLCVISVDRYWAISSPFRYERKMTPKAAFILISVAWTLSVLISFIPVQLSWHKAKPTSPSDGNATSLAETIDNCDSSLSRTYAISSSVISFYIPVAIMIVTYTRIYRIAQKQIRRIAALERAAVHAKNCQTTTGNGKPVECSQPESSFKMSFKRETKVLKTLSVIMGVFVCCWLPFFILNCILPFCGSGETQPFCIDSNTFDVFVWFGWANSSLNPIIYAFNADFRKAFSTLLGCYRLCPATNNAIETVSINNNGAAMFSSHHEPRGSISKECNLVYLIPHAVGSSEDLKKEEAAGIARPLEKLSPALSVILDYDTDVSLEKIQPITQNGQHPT

Homo sapiens [7] = species: Homo sapiens; test: Binding affinity at somatostatin receptor at 1 uM
Homo sapiens [8] = species: Homo sapiens; test: Binding affinity at ML1 receptor at 1 uM
[9] = biological target: T4, Type-1 angiotensin II receptor (Homo sapiens) (UniProt P30556); test: Binding affinity at AT1 receptor at 1 uM
T4 sequence (whole entry): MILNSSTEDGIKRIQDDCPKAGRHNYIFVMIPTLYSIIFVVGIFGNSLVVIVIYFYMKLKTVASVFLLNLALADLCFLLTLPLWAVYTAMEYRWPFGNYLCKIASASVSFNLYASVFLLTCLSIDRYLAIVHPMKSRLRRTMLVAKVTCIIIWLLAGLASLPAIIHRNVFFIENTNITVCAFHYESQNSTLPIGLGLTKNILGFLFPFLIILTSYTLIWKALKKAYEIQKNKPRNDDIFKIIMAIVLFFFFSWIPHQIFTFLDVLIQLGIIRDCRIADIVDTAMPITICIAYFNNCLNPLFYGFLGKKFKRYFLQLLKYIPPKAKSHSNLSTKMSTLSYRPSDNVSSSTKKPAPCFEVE

[10] = biological target: T5, Cholecystokinin receptor type A (Homo sapiens) (UniProt P32238); test: Binding affinity at CCKA receptor at 1 uM
T5 sequence (whole entry): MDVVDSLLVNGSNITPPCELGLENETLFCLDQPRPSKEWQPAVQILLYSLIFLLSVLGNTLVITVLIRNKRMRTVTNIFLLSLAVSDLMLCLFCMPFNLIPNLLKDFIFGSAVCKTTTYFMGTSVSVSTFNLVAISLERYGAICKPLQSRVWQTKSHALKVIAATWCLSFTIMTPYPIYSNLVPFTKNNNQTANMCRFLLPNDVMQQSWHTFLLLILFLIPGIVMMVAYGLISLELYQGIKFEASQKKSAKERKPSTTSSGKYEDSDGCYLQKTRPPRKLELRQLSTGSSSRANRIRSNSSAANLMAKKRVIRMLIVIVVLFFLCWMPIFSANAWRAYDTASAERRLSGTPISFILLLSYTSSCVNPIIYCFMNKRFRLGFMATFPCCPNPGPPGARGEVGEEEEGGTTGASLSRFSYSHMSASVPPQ

Homo sapiens [11] = species: Homo sapiens; test: Binding affinity for chloride channel at 1 uM
[12] = biological target: Adenosine receptor A2a (Homo sapiens) (UniProt P29274); test: Binding affinity at adenosine A2A receptor at 1 uM
Adenosine receptor A2a (Homo sapiens), sequence (P29274 whole entry): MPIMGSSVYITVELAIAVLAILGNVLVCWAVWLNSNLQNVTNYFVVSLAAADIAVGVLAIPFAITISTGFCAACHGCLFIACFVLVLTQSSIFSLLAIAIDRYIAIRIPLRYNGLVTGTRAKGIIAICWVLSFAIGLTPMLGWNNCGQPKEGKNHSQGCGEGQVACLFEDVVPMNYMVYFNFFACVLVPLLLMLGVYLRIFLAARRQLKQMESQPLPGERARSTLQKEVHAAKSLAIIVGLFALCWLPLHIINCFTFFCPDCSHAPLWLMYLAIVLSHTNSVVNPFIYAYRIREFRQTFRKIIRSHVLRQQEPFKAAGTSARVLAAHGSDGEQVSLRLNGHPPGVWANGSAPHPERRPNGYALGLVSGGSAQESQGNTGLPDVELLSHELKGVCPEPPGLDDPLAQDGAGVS

Homo sapiens [13] = species: Homo sapiens; test: Binding affinity for sodium channel at 1 uM
[14] = biological target: Beta-1 adrenergic receptor (Homo sapiens) (UniProt P08588); test: Binding affinity at adrenergic beta-1 receptor at 1 uM
Beta-1 adrenergic receptor (Homo sapiens), sequence (P08588 whole entry, looked up): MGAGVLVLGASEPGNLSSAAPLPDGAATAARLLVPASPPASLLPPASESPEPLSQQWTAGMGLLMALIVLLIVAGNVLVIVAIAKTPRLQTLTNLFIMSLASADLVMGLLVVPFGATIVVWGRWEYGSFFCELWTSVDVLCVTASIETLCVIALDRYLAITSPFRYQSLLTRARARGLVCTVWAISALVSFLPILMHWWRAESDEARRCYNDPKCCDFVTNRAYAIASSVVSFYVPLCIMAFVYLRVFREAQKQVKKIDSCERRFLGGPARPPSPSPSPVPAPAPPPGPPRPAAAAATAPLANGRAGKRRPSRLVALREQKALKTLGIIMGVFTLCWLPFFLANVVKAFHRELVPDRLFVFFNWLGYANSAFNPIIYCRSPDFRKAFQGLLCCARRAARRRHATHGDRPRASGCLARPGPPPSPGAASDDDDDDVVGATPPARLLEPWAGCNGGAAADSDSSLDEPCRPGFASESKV

[15] = biological target: 5-hydroxytryptamine receptor 7 (Homo sapiens) (UniProt P34969); test: Binding affinity at 5HT7 receptor at 1 uM
5-hydroxytryptamine receptor 7 (Homo sapiens), sequence (P34969 whole entry): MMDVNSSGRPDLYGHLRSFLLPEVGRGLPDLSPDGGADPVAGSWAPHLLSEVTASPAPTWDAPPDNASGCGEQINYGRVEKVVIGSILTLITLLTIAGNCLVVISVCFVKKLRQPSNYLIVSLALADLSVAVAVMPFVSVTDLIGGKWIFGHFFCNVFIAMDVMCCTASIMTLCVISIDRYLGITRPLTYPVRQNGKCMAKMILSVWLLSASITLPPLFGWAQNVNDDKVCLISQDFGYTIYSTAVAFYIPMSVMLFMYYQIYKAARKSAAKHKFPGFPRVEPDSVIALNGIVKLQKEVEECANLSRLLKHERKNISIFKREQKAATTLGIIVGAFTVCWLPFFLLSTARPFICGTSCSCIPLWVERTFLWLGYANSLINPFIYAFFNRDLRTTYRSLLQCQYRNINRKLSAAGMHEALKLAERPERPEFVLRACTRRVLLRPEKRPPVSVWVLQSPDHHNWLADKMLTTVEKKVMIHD

Measured: Activity

COc1ccc([C@@H]2CN(C)Cc3cc(OCCCN4CCOC[C@@H]4C)ccc32)cc1
inactive: all assays above

CSc1ccc(C2CN(C)Cc3cc(OCCCN4CCC(F)CC4)ccc32)cc1 (racemic)
inactive: all assays above

CSc1ccc(C2CN(C)Cc3cc(OCCCN4CCOCC4)ccc32)cc1 (racemic)
inactive: all assays above
